From patent US20040002441A1, “Recombination modulators and methods for producing and using the same” (priority 2000, published 2004)
Where no end group is shown, it is not given here.

Key:
[1] = molecular target: T1, bacteriophage λ Integrase (Int) (Escherichia phage lambda, UniProt P03700); assay: Int-mediated integrative recombination; assay type: biochemical; details: IC50, inhibition of integrative recombination, integration pathway
T1 sequence (P03700 1-356): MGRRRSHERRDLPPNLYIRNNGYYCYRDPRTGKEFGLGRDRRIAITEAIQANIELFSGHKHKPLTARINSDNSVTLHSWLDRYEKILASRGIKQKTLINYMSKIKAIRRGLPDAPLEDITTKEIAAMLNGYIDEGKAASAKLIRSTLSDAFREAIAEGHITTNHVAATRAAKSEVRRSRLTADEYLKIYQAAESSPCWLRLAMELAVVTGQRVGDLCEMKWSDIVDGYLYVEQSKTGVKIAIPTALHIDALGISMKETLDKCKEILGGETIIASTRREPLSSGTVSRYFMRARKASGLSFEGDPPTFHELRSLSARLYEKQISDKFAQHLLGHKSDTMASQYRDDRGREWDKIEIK
T1 sequence (P0A6X7 1-99 partner): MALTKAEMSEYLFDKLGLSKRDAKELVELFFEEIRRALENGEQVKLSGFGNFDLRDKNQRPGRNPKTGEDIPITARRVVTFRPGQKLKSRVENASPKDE
T1 sequence (P0A6Y1 1-94 partner): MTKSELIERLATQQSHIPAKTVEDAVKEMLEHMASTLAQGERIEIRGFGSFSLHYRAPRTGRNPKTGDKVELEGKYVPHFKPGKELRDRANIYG
Experimental: (§1) FIG. 11 depicts effect of peptide KWWCRW (diamonds) and peptide KWWWRW (squares) on the remaining 3 pathways of Int-mediated recombination. Recombination extents were normalized to the amount of recombination in untreated reactions and expressed as relative % recombination. A. Effect of peptides on integrative recombination (IC50 values for both peptides are roughly 0.2 μM). Reactions were assembled as for bent-L recombination except that they were incubated at room temperature, the substrates were a supercoiled plasmid (4.8 kb) carrying attP and ^32P labeled 91 bp PCR fragment encoding attB. […] The recombination substrates were PCR fragments encoding the attL (^32P-labeled) and attR sites. Reactions contained 50 NM Xis in addition to Int and IHF (37 nM), as well as 100 ng salmon sperm DNA, and were incubated at room temperature. C. Effect of peptides on straight-L recombination (IC50 values for peptide KWWCRW is 0.06 μM, while for peptide KWWWRW is slightly over 0.1 μM). Reactions were assembled as for bent-L recombination except that they were incubated at room temperature; the substrates were two PCR fragments, one of which was ^32P-labeled and 187 bp, the other of which was unlabeled and 496 bp.
(§2) Int Assays. […] Dried gels were visualized and quantitated using a Molecular Dynamics PhosphorImager.

[2] = molecular target: T2, bacteriophage λ Integrase (Int) (Escherichia phage lambda, UniProt P03700); assay: Int-mediated straight-L recombination; assay type: biochemical
T2 sequence (P03700 1-356): T1 sequence (P03700 1-356)
Experimental: as §1, §2

[3] = molecular target: T3, Vaccinia topoisomerase (type Ib) (Vaccinia virus, UniProt P68698); assay: biochemical; details: for IC50: IC50 for plasmid relaxation (activity reduced by one-half), pUC19 DNA
T3 construct: made in house; host or cells: Escherichia coli BL21 infected with bacteriophage λCE6

[4] = system: T4 topoisomerase (type II); assay: T4 topoisomerase DNA relaxation assay; assay type: biochemical, bacteriophage T4; details: for effect on DNA relaxation: 100 μM peptide
Experimental: T4 topoisomerase assays. Reactions were performed as described (Huff and Kreuzer, 1990) using 30 or 60 ng of enzyme and 200 ng of supercoiled pUC19 per reaction. The products were electrophoresed on 0.8% agarose gels at 40V in 0.5× Tris borate EDTA buffer for about 6 hours. The gel was then stained with EtBr for viewing.

Xba I = assay: Restriction enzyme assay on pUC19; assay type: biochemical; details: Xba I (TCTAGA)
Experimental: Restriction enzyme assays. Restriction digests were performed as specified and the products were separated on 0.8% agarose gels electrophoresed at 80-90V in 1× Tris borate EDTA buffer. Gels were photographed, scanned and quantitated using NIH Image v.1.55, as recommended in the instruction manual.

[5] = molecular target: bacteriophage λ Integrase (Int) (Escherichia phage lambda, UniProt P03700); assay: Resolution of isolated excision Holliday junctions by Int, IHF and Xis; assay type: biochemical; details: peptide 100 μM
Experimental: FIG. 18 depicts effect of peptide WKHYNY on DNA cleavage. A. Time course of resolution of excision HJs. HJs were isolated, and Int, IHF, and Xis were added in the presence or absence of peptide 52 (100 μM) and stopped at various timepoints (1, 5, 15, 30, 60, and 90 min). Absence of peptide, closed circles; presence of peptide, open squares. B. The extent of strand cleavage of attL. An attL site containing a phosphorothiolate modification at the point of top strand cleavage (attLS) was incubated with Int, IHF, and Xis, in the presence of attR and in the presence or absence of peptide WKHYNY. Absence of peptide, open squares; presence of peptides, closed diamonds.
Holliday junctions can be resolved either in the “forward” direction to form recombinant products or in the “reverse” direction to re-form substrates. Synthetic HJs representing intermediates in the unidirectional reactions are preferentially resolved in the direction of products (Hsu and Landy, 1984; Franz and Landy, 1990, 1995). We wanted to determine whether HJs isolated in the presence of peptide behave similarly to the synthetic HJs. In addition, we wanted to analyze the processing of bent-L HJs. Recombination reactions were assembled in the presence of peptide WKHYNY, and protein-free HJs were isolated from SDS-containing gels, eluted, and precipitated. […]

Row | Substance | IC50 [1] | IC50 [2] | IC50 [3] | effect on DNA relaxation [4] | IC50 ([4]; supercoiled pUC19) | IC50 (Xba I) | effect on rate of resolution of gel-isolated excision HJs [5] | effect on DNA relaxation ([3]; peptide concentrations up to 42 μM)
1 | KWWWRW-NH2 [Peptide 56, KWWWRW] | ~0.2 µM | > 0.1 µM | 3 to 4 µM |  |  |  |  | 
2 | KWWCRW-NH2 [Peptide 59, KWWCRW] | 0.3 µM | 0.06 µM | 3.5 µM | blocked it completely | 40 µM | 37 µM |  | 
3 | WKHYNY-NH2 [Peptide 52, WKHYNY] |  |  |  | no effect |  |  | slowed the rate of cleavage | no effect
